Reference: patent US20080188481A1 (priority 2002, published 2008)

Test system: HIV-1 single-round infectious reporter virus
Test: Single-round infectious HIV-1 luciferase reporter virus infection of HeLa CD4 cells (antiviral EC50)
Assay type: cell-based
Details: Human immunodeficiency virus 1, HeLa, 72 h, read-out: EC50 Group from Table 1
Summary of the method: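 HeLa CD4 cells infected with env-pseudotyped, luciferase-reporter single-round HIV-1 (MOI ~0.01) in presence of compound (final ≤10 μM), harvested 72 h at 37 °C. Luciferase luminescence expressed as percent inhibition versus no-compound control; EC50 from 10-concentration four-parameter logistic fit.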

SMILES	EC50 [nM]
COc1cnc(-n2cnc(C)n2)c2[nH]cc(C(=O)C(=O)N3CCC(=C(c4ccccc4)c4nnc(-c5ccccc5)o4)CC3)c12 [Example 135, 1-[4-(1-Phenyl-1-(5-phenyl-1,3,4-oxadiazol-2-yl)-methylene)-piperidin-1-yl]-2-[4-methoxy-7-(3-methyl-1,2,4-triazol-1-yl)-6-azaindol-3-yl]-ethane-1,2-dione]	> 500
COc1cnc(-n2cnc(C)n2)c2[nH]cc(C(=O)C(=O)N3CCC(=C(c4ccccc4)c4cn(C)cn4)CC3)c12 [Example 136, 1-[4-(1-Phenyl-1-(1-methylimidazol-4-yl)-methylene)-piperidin-1-yl]-2-(4-methoxy-7-(3-methyl-1,2,4-triazol-1-yl)-6-azaindol-3-yl)-ethane-1,2-dione]	< 1000
COc1cnc(-n2cc(C)nn2)c2[nH]cc(C(=O)C(=O)N3CCC(=C(c4ccccc4)c4cc(C)n[nH]4)CC3)c12 [Example 137, 1-[4-(1-Phenyl-1-(3-methylpyrazol-5-yl)-methylene)-piperidin-1-yl]-2-(4-methoxy-7-(4-methyl-1,2,3-triazol-1-yl)-6-azaindol-3-yl)-ethane-1,2-dione]	< 1000
COc1cnc(-n2cc(C)nn2)c2[nH]cc(C(=O)C(=O)N3CCC(=C(c4ccccc4)c4nnc(C)o4)CC3)c12 [Example 138, 1-[4-(1-Phenyl-1-(5-methyl-1,3,4-oxadiazol-2-yl)-methylene)-piperidin-1-yl]-2-(4-methoxy-7-(4-methyl-1,2,3-triazol-1-yl)-6-azaindol-3-yl)-ethane-1,2-dione]	< 1000
COc1cnc(-c2nnc(C)[nH]2)c2[nH]cc(C(=O)C(=O)N3CCC(=C(c4ccccc4)c4nnc(C)o4)CC3)c12 [Example 139, 1-[4-(1-Phenyl-1-(5-methyl-1,3,4-oxadiazol-2-yl)-methylene)-piperidin-1-yl]-2-(4-methoxy-7-(5-methyl-1,3,4-triazol-2-yl)-6-azaindol-3-yl)-ethane-1,2-dione]	< 1000
COc1cnc(-c2cc(C)n[nH]2)c2[nH]cc(C(=O)C(=O)N3CCC(=C(c4ccccc4)c4nnc(C)o4)CC3)c12 [Example 140, 1-[4-(1-Phenyl-1-(5-methyl-1,3,4-oxadiazol-2-yl)-methylene)-piperidin-1-yl]-2-(4-methoxy-7-(5-methylpyrazole-3-yl)-6-azaindol-3-yl)-ethane-1,2-dione]	< 1000
COc1cnc(-n2cnc(C)n2)c2[nH]cc(C(=O)C(=O)N3CCC(=C(c4ccccc4)c4cnn(C)c4)CC3)c12 [Example 141, 1-[4-(1-Phenyl-1-(1-methylpyrazol-4-yl)-methylene)-piperidin-1-yl]-2-(4-methoxy-7-(3-methyl-1,2,4-triazol-1-yl)-6-azaindol-3-yl)-ethane-1,2-dione]	< 1000
COc1cnc(-n2ccnn2)c2[nH]cc(C(=O)C(=O)N3CCC(=C(c4ccccc4)c4cnn(C)c4)CC3)c12 [Example 142, 1-[4-(1-Phenyl-1-(1-methylpyrazol-4-yl)-methylene)-piperidin-1-yl]-2-(4-methoxy-7-(1,2,3-triazol-1-yl)-6-azaindol-3-yl)-ethane-1,2-dione]	< 1000
COc1cnc(-n2cnc(C)n2)c2[nH]cc(C(=O)C(=O)N3CCC(=C(c4ccccc4)c4cnn(Cc5ccccc5)c4)CC3)c12 [Example 143, 1-[4-(1-Phenyl-1-(1-benzylpyrazol-4-yl)-methylene)-piperidin-1-yl]-2-(4-methoxy-7-(3-methyl-1,2,4-triazol-1-yl)-6-azaindol-3-yl)-ethane-1,2-dione]	< 1000
COc1cnc(-n2ccnn2)c2[nH]cc(C(=O)C(=O)N3CCC(=C(c4ccccc4)c4cnn(Cc5ccccc5)c4)CC3)c12 [Example 144, 1-[4-(1-Phenyl-1-(1-benzylpyrazol-4-yl)-methylene)-piperidin-1-yl]-2-(4-methoxy-7-(1,2,3-triazol-1-yl)-6-azaindol-3-yl)-ethane-1,2-dione]	< 1000
